In US5079231A, “Immunostimulating peptides, a process for their preparation and pharmaceutical compositions containing them” (Ellem Industria Farmaceutica S.p.A., priority 1988, dated 1992):
No end group written: not given here.

Columns and labels:
[1] = known tripeptides; cited from earlier work
T-lymphocytes = conditions: known peptides, earlier patent applications and literature; cited from earlier work
[2] = Resistance to the in vitro simulated gastric ambient; type: in vitro ADME; conditions: 37° C., 3 hours, gastric simulated juice USP XXl (HCl+pepsin)
Method: Resistance to the in vitro simulated gastric ambient
The hexapeptides Arg-Lys-Glu-Arg-Ala-Arg and Arg-Ala-Arg-Arg-Lys-Glu are stable at 37° C. for 3 hours in in vitro simulated gastric ambient using the gastric simulated juice USP XXl (HCl+pepsin).

| Resistance to the in vitro simulated gastric ambient [2] | Substance | stability to the in vitro simulated gastric juice [1] | immunostimulating activity (maturation and functionality of T-lymphocytes) (T-lymphocytes) |
| --- | --- | --- | --- |
|  | Arg-Ala-Arg | stable | endowed with immunostimulating activity |
|  | Arg-Gly-Asp |  | displays a similar behaviour |
|  | Arg-Lys-Asp |  | displays a similar behaviour |
|  | Arg-Lys-Glu | stable | has immunostimulating properties |
| stable | RARRKE [ARG--ALA--ARG--ARG--LYS--GLU, Arg-Ala-Arg-Arg-Lys-Glu] |  |  |
| stable | RKERAR [ARG--LYS--GLU--ARG--ALA--ARG, Arg-Lys-Glu-Arg-Ala-Arg] |  |  |
